For experiment [1], the target named is T1, Pg. cyclooxygenase (Sus scrofa, UniProt A0A287ANF9).
T1 construct: Porcine Seminal; from tissue; the methods section prints beef seminal vesicle
As to the kind of experiment: Porcine seminal vesicles Pg. cyclooxygenase. In kind it is biochemical. Conditions: Table XVI; 60 min incubation.

Experiment [2] concerns Cf1 male mice. Put plainly: Anti-inflammatory screen, Winter's test, 2% carrageenan hind foot. In kind it is in vivo. The settings on record: Table XIV; unit inferred; unit assumed. The procedure:
Anti-inflammatory Screen- Cf1 - male mice-Winter's Test 2% carrageenan S.C. plantar surface of hind foot, drugs administered @8 or 10 mg/kg I.P. 2X
Winter, C.A., et al, Proc. Soc.

Experiment [3] deals with T2, Cathepsin D (Mus musculus, UniProt P18242).
T2 construct: azocasein assay pH 5.0
As to the kind of experiment: Mouse hepatic lysosomal cathepsin D activity. In kind it is biochemical. The text has this:
(§1) 1. Cf1 male mouse hepatic 10% homogenates in 0.25M sucrose+0.001MEDTA,pH 7.2.
(§2) Lysosomal Enzymes - free and total [triton X-100].
(§3) 2. Acid Cathepsin D -azocasein-pH 5.0, hydrolytic azo-peptide produce 366 nm.
Cathepsin azo casein activity -

The subject of experiment [4] is Cf1 male mice. As to the kind of experiment: Hot plate tail flick test. In kind it is in vivo. Conditions: Table XIV; unit not given.
Experiment [5] concerns the target Aryl sulphatase. Put plainly: Mouse macrophage aryl sulphatase activity. The settings on record: Table XVII; mouse macrophage, 60 min incubation; read-out: Aryl Sulphatase IC50. The experiment is classed as cell-based.
For experiment [6], the target named is Acid phosphatase. As to the kind of experiment: Mouse macrophage acid phosphatase activity. The experiment is classed as cell-based. The settings on record: Table XVII; mouse macrophage, 60 min incubation; read-out: Acid Phosphatase IC50.
In experiment [7] the target is Prostaglandin cyclooxygenase. Put plainly: Mouse macrophage prostaglandin cyclooxygenase activity. Conditions: Table XVIII; mouse macrophage, 60 min incubation; read-out: Prostaglandin Cyclooxygenase IC50. The experiment is classed as cell-based. The text has this:
(§4) 3. Mouse macrophages J774A.1 BALB/c
Prostaglandin synthetase purified beef seminal vesicle ^3 H arachidonic acid (86.2 Ci/mmol), tlc separation.

Experiment [8] deals with Sprague Dawley male rats. As to the kind of experiment: Anti-pleurisy screen, Evans blue + carrageenan. In kind it is in vivo. The settings on record: Table XIV; unit not given.
Experiment [9] concerns the target Commercial Collagenase. As to the kind of experiment: Commercial collagenase (type not stated). The experiment is classed as biochemical. Conditions: Table XVI; 60 min incubation. An excerpt: 3. Collagenase I, Clostridium histolyticum, bone, skin, tendon, blood vessel, dentine, GI. substrate: rat collagen, N-[propionate-2-3-^3 H] propionylated measured as dpm released.
4. Collagenase II, Clostridium histolyticum, cartilage collagen.

Experiment [10] deals with Trypsin. Put plainly: Mouse hepatic trypsin activity. In kind it is biochemical. The settings on record: Table XVI; 60 min incubation; read-out: Mouse Hepatic Trypsin IC50.
Excerpt: as §1
1. Trypsin- N-benzoyl-L-arginine ethyl ester pH 8.0, hydrolytic product 253 nm.

The target in experiment [11] is Aryl sulphatase. As to the kind of experiment: Mouse hepatic lysosomal aryl sulphatase activity. In kind it is biochemical. The settings on record: Table XV, 60 min incubation.
Excerpt: as §1, §2
3. Aryl sulphatase- p-nitrocatechol sulfate, pH
5. 8 p-nitro-catechol product 510 nm.

Experiment [12] has as its system Trypsin. As to the kind of experiment: Mouse macrophage trypsin (BAEE) activity. The settings on record: Table XVIII; mouse macrophage, 60 min incubation; read-out: Trypsin BAEE IC50. The experiment is classed as cell-based.
Experiment [13] has as its system Cf1 male mice. Put plainly: Writhing reflex, 0.6% acetic acid. In kind it is in vivo. The settings on record: Table XIV; unit inferred; unit assumed. The protocol: Writhing reflex- Cf1 -male mice- 0.6% acetic acid I.P. drugs administered @20 mg/kg/ I.P. 20 min. later - the # of stretches/10 min.
Hendershot, L.C., et al, J.

In experiment [14] the target is Elastase. As to the kind of experiment: Mouse macrophage elastase activity. Conditions: Table XVIII; mouse macrophage, 60 min incubation; read-out: Elastase IC50. In kind it is cell-based.
Excerpt: Elastase- N-succinyl-L-alanyl-L-alanine-p-nitroanilide, pH 8.0, p-nitro anilide 410 nm.
Experiment [15] has as its target T2, Cathepsin D. Put plainly: Mouse macrophage cathepsin D activity. In kind it is cell-based. Conditions: Table XVII; mouse macrophage, 60 min incubation; read-out: Cathepsin D pH 5.0 IC50.
Excerpt: as §4, §3

Experiment [16] deals with Acid phosphatase. As to the kind of experiment: Mouse hepatic lysosomal acid phosphatase activity. The experiment is classed as biochemical. Conditions: Table XV; mouse hepatic, 60 min incubation.
Excerpt: as §1, §2
1. Acid phosphatase -beta glycerol-3-phosphate, pH 5.0, released IP 720 nm.
Acid phosphatase activity -

In experiment [17] the test system is Sprague Dawley male rats. As to the kind of experiment: Chronic adjuvant arthritis screen, Mycobacterium butyricum. The experiment is classed as in vivo. Conditions: Table XIV; unit not given.
The target of experiment [18] is T3, 5'-Lipoxygenase (Homo sapiens, UniProt P09917).
T3 construct: human leukocyte tissue culture cells; endogenous in cells; host or cells: Human peripheral leukocytes, RPMI-1788
T3 sequence (P09917 1-674): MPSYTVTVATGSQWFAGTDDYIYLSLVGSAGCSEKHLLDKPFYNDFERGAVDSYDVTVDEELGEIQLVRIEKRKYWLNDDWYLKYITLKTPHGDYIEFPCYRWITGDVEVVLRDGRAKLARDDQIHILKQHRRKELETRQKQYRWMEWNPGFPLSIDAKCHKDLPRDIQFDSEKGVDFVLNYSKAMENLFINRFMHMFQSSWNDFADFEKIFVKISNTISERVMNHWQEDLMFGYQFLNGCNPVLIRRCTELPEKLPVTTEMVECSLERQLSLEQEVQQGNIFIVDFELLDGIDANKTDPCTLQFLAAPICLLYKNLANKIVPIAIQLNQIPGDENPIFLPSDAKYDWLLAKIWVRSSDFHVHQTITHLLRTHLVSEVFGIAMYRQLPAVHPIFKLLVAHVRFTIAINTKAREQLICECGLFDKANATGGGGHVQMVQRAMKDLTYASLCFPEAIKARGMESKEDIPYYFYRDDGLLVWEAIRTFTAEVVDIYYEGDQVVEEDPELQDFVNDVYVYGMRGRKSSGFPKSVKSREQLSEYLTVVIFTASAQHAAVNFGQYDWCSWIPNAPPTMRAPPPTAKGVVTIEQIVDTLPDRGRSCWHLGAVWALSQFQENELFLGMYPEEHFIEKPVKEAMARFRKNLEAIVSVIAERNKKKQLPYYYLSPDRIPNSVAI
As to the kind of experiment: Human leukocyte 5'-lipoxygenase. In kind it is cell-based.

The test system of experiment [19] is Cathepsin. Put plainly: Human leukocyte cathepsin. The experiment is classed as cell-based. Conditions: Table XIX; read-out: Human Leukocyte IC50 (head gives no enzyme; beside Cathepsin D).
Excerpt: 5. Human peripheral leukocytes, RPMI-1788
as §3

[20] abbreviates: Table XV, mouse hepatic, 60 min incubation, read-out: Cathepsin D IC50.
Where [21] appears, read: read-out: Mouse Hepatic Cathepsin D IC50, Table XIX.

T2 sequence (P18242 65-410): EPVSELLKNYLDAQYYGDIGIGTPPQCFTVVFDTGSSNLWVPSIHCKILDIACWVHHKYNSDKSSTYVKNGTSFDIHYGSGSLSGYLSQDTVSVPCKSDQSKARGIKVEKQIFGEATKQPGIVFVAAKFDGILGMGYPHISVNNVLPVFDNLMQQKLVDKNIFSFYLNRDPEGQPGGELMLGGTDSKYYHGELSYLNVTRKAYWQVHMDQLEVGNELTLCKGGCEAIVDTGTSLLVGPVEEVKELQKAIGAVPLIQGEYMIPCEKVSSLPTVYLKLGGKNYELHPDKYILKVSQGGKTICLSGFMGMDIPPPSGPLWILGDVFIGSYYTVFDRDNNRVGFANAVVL
T1 sequence (A0A287ANF9 25-600): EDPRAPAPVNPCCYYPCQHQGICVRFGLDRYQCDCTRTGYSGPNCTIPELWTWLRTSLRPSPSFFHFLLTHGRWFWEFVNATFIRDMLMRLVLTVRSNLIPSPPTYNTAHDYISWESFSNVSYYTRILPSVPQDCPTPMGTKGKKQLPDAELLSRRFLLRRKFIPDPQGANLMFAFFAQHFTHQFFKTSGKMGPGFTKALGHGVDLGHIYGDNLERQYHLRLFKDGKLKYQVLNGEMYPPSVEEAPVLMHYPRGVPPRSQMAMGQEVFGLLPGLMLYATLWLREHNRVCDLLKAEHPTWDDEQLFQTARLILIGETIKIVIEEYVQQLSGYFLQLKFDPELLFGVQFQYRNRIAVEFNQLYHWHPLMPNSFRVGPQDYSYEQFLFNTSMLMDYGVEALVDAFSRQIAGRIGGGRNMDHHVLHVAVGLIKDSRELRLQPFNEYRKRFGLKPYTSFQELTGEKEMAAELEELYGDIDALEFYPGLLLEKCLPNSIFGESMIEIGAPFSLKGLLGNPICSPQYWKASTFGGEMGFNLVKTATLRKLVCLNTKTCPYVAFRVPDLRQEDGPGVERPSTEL

Regarding `CC(C)=O.C[N+](C)(C)[BH2-]C(=O)[O-].O=[N+]([O-])[O-].[Ca+2]` [Compound 28], the IC50 in experiment [1] amounted to 2.57 µM; in experiment [3] (setting [20]) it was 4.58 µM; in experiment [5], 2.38 µM; in [6], 3.08 µM; in experiment [7] it was 1.92 µM; in [9], 495 µM. In addition, the IC50 turned out to be 9.99 µM in [10]; 3.05 µM in experiment [11]; 2.38 µM in experiment [12]; 5.93 µM in [14]; 2.38 µM in experiment [15]; 7.66 µM in [16]. Besides, the Anti-Inflammation Cf1 Mice in experiment [2] is 65%. The “Tail Flick Mice” value in [4] worked out at 169. In addition, the “Anti-Pleurisy Rats” value in experiment [8] was found to be 50.1. Also, the Writhing Reflex Mice in [13] came out at 66.4%.

Turning to `C[N+](C)(C)[BH2-]C(=O)[O-].C[N+](C)(C)[BH2-]C(=O)[O-].NCCN.NCCN.[Cl-].[Co+3]` [Compound 27], the 50% inhibitory concentration (IC50) in experiment [1] was determined as 4.01 µM; in experiment [3] (setting [20]) it was 7.8 µM; in [5], 1.95 µM; in experiment [6] it was 2.92 µM; in experiment [7] it was 2.09 µM; in experiment [9] it was 522 µM. Further, the half-inhibitory concentration (IC50) in experiment [10] came out at 9.88 µM; in experiment [11], 5.89 µM; in experiment [12], 1.38 µM; in experiment [14] it was 9.77 µM; in experiment [15], 3.83 µM; in [16] it was 4.25 µM. For the same molecule, the Anti-Inflammation Cf1 Mice in [2] was found to be 49.6%. Further, the “Tail Flick Mice” value in experiment [4] stood at 150. Further, in experiment [17], the “Anti-Arthritis Rats” value came out at 70.0. Further, the “Anti-Pleurisy Rats” value in experiment [8] is on record as 96.3. For the same molecule, the Writhing Reflex Mice in [13] is 66.2%.

Turning to `CC(C)[Si](OC[C@H]1O[C@@H](n2cnc3c(=O)[nH]cnc32)C[C@@H]1O[Si](C(C)C)(C(C)C)C(C)C)(C(C)C)C(C)C` [Compound 29], the IC50 stood at 8.85 µM in [18], 79.6 µM in experiment [3] (setting [21]) and 31.8 µM in experiment [19].

As to `CC(C)[Si](OC[C@H]1O[C@@H](n2cnc3c(N)ncnc32)C[C@@H]1O[Si](C(C)C)(C(C)C)C(C)C)(C(C)C)C(C)C` [Compound 35], the concentration for half-maximal inhibition (IC50) in experiment [18] amounted to 10.1 µM; in experiment [3] (setting [21]) it was 58.1 µM; in experiment [19], 33.4 µM.

On to `CC(C)[Si](OC[C@H]1O[C@@H](n2ccc(N)[n+]([BH2-]C#N)c2=O)C[C@@H]1O[Si](C(C)C)(C(C)C)C(C)C)(C(C)C)C(C)C` [Compound 40], for which the IC50 is 3.88 µM in [18], 27.2 µM in experiment [3] (setting [21]) and 6.12 µM in experiment [19].

For the origin of these results see patent US5312816A, “Method of combatting osteoporosis in mammalian subjects, utilizing organic boron compounds” (priority 1993, dated 1994).
